Test results: patent US20190046627A1, “USE OF A GNP-LLO91-99 COMPLEX FOR THE TREATMENT AND PREVENTION OF CANCER” (FUNDACIÓN INSTITUTO DE INVESTIGACIÓN MARQUES DE VALDECILLA, priority 2016, published 2019)
No end group written: not given here.

Experiments:
[1] = test system: hepatocarcinoma (Hepa 1-6); assay: In vitro activation cell markers, flow cytometry; type: cell-based, murine; conditions: 10 μg/ml pre-treatment
Description: (§1) 1.—Tumor cells. The cells used are: Hepa1-6, murine hepatocarcinoma, TC-1, murine lung carcinoma; B16F10, murine melanoma; A-375, human melanoma; hamster melanoma (ATCC).
(§2) 3.—Study of in vitro activation cell markers. The markers of the cell surface of the different tumor cells (1×10^6 cells) that are pre-treated or that are not pre-treated with 10 μg/ml of the GNP-LLO91-99 gold nanoparticles similar to the apoptosis process are analyzed by means of flow cytometry using the following antibodies (Miltenyi Biotech): anti-CD86-V450, anti-CD80-FITC, anti-MHC-II-APC, CD11c-PE, anti-NCAM-PE, anti-PD-1-V450.

lung cancer cells (TC-1) = assay: In vitro activation cell markers, flow cytometry; type: cell-based, murine; conditions: 10 μg/ml pre-treatment
Description: as §1, §2

[2] = In vitro apoptosis-necrosis, flow cytometry annexin V-APC / 7-ADD; type: cell-based, hamster; conditions: 10 μg/ml, 16 hours, CHO
Description: as §1
(§3) 2.—In vitro apoptosis-necrosis. The different tumor cells (1×10^6 cells) are treated with 10 μg/ml of the GNP-LLO91-99 gold nanoparticles in culture plates, 16 hours prior to the apoptosis-necrosis analysis, including cells of each type of tumor without treatment with the gold nanoparticles (control). Following washing, the cells are analyzed by means of flow cytometry using two specific products, annexin V conjugated with the APC fluorochrome and the fluorescent marker for binding to DNA, 7-ADD (7-amino-actinomycin D). Apoptosis and necrosis in the tumor cells are analyzed by means of the differential marking with annexin V-APC and 7-ADD expressed as percentages. While the necrosis is indicated as the percentage of cells doubly marked with annexin V-APC and 7-ADD, the apoptosis is expressed as the percentage of cells marked only with annexin V.

murine melanoma B16F10 [3] = assay: Reduction of the size of the tumor, subcutaneous murine melanoma in adult mice (Example 2); type: in vivo; conditions: adult C57BL/6 mice, s.c. B16F10 established 7 days, 50 μg/ml inoculated in the tumors for 5 days
Description: (§4) For the study of the reduction of the size of the tumor making use of different therapies and their comparison with that of the invention, 1×10^6 cells of murine melanoma B16F10 were inoculated in a subcutaneous manner in the left ventral flank of 8-12-week old female mice of the C57BL/6 strain.
(§5) After 7 days post-inoculation, 50 μg/ml of the following therapies were inoculated in the tumors for 5 days: LLO91-99 (only peptide from listeriolysin O of Listeria monocytogenes, LLO91-99), GNP (empty gluconanoparticles), GNP-LLO91-99 (gluconanoparticles synthesized with the peptide from listeriolysin O of Listeria monocytogenes, LLO91-99), GNP-GAPDH1-22 (nanoparticles synthesized with the peptide from glyceraldehyde-3-phosphate dehydrogenase of Listeria monocytogenes, GAPDH1-22) or no particle (NT). Dendritic cells loaded with the LLO91-99 (1×10^6 DC-LLO91-99) peptide were also included as a control, a vector previously used in therapy.
(§6) Following this treatment, the mice were sacrificed and the tumors recovered, measuring their size with a gauge.

B16F10, murine melanoma [4] = assay: In vitro activation cell markers, flow cytometry; type: cell-based; conditions: 10 μg/ml pre-treatment
Description: as §1, §2

A-375, human melanoma [5] = assay: In vitro activation cell markers, flow cytometry; type: cell-based; conditions: 10 μg/ml pre-treatment, A375
Description: as §1, §2

murine melanoma B16F10 [6] = assay: Reduction of the size of the tumor in newborns (Example 6); type: in vivo; conditions: 9-day old Balb/c mice, s.c. B16F10 established 5 days, 50 μg/ml in the tumors for 5 days
Description: as §4, with “tumor in newborns” for “tumor”, “5×10^5” for “1×10^6”, “interscapular area” for “left ventral flank”, “9-day” for “8-12-week”, “Balb/c” for “C57BL/6”
as §5, with “Following 5” for “After 7”, “GAPDH1-22). As” for “GAPDH1-22) or no particle (NT). Dendritic cells loaded with the LLO91-99 (1×10^6 DC-LLO91-99) peptide were also included as”, “therapy was also included, dendritic cells loaded with the LLO91-99 (1×10^5 DC-LLO91-99) peptide.” for “therapy.”
as §6

[7] = test system: Hepa1-6, murine hepatocarcinoma; assay: In vitro apoptosis-necrosis, flow cytometry annexin V-APC / 7-ADD; type: cell-based; conditions: 10 μg/ml, 16 hours
Description: as §1, §3

B16F10, murine melanoma [8] = assay: as above; type: cell-based; conditions: 10 μg/ml, 16 hours
Description: as §1, §3

A-375, human melanoma [9] = assay: as above; type: cell-based; conditions: 10 μg/ml, 16 hours, A375
Description: as §1, §3

[10] = test system: TC-1, murine lung carcinoma; assay: as above; type: cell-based; conditions: 10 μg/ml, 16 hours
Description: as §1, §3

GNP-LLO91-99: gluconanoparticles synthesized with the peptide from listeriolysin O of Listeria monocytogenes, LLO91-99 (GYKDGNEYI; also: gold glyconanoparticle conjugate; UniProt P13128 91-99, looked up, fragment)
expression of immune cell activation markers ([1]; Hepa 1-6): boosted the expression of various activation markers such as MHC-I, MHC-II, CD80 and PD-1
expression of PD-1 ([1]; hepatocarcinomas): high expression of PD-1
expression of immune cell activation markers (lung cancer cells (TC-1)): only boosted the expression of MHC-I
induction of tumor apoptosis and necrosis / inhibitory effect [2]: do not cause any inhibitory effect
therapeutic effect on the melanoma (in words) (murine melanoma B16F10 [3]): does achieve a significant tumor regression
tumor regression (murine melanoma B16F10 [3]): 90%
expression of immune cell activation markers (B16F10, murine melanoma [4]): boosted the expression of various activation markers such as MHC-I, MHC-II, CD80 and PD-1
expression of immune cell activation markers (A-375, human melanoma [5]): boosted the expression of various activation markers such as MHC-I, MHC-II, CD80 and PD-1
tumor regression in newborns (murine melanoma B16F10 [6]): 95%
effect of inducing apoptosis [7]: much more pronounced
induction of tumor apoptosis and necrosis [7]: induce both tumor apoptosis and necrosis
effect of inducing apoptosis (B16F10, murine melanoma [8]): much more pronounced
effect of inducing apoptosis (A-375, human melanoma [9]): much more pronounced
effect of inducing apoptosis [10]: much more pronounced
induction of tumor apoptosis and necrosis [10]: induce both tumor apoptosis and necrosis
